One block for each compound: values may come before it.
Columns and labels:
PIK3CB (Human) [1] = target: PIK3CB (Human) (UniProt P42338); test: Cell-Based Assay; settings: mda-468
EGFR (human) [2] = target: EGFR (human) (UniProt P00533)
EGFR (human) [3] = target: EGFR (human) (UniProt P00533); settings: a431
EGFR (human) [4] = target: EGFR (human) (UniProt P00533); remark: listed apart in the source
PIK3CA (human) [5] = target: PIK3CA (human) (UniProt P42336); test: Enzyme Assay
PIK3CB (Human) [6] = target: PIK3CB (Human) (UniProt P42338); test: Enzyme Assay
PIK3CD (Human) [7] = target: PIK3CD (Human) (UniProt O00329); test: Enzyme Assay
PIK3CD (Human), sequence (O00329 whole entry, looked up): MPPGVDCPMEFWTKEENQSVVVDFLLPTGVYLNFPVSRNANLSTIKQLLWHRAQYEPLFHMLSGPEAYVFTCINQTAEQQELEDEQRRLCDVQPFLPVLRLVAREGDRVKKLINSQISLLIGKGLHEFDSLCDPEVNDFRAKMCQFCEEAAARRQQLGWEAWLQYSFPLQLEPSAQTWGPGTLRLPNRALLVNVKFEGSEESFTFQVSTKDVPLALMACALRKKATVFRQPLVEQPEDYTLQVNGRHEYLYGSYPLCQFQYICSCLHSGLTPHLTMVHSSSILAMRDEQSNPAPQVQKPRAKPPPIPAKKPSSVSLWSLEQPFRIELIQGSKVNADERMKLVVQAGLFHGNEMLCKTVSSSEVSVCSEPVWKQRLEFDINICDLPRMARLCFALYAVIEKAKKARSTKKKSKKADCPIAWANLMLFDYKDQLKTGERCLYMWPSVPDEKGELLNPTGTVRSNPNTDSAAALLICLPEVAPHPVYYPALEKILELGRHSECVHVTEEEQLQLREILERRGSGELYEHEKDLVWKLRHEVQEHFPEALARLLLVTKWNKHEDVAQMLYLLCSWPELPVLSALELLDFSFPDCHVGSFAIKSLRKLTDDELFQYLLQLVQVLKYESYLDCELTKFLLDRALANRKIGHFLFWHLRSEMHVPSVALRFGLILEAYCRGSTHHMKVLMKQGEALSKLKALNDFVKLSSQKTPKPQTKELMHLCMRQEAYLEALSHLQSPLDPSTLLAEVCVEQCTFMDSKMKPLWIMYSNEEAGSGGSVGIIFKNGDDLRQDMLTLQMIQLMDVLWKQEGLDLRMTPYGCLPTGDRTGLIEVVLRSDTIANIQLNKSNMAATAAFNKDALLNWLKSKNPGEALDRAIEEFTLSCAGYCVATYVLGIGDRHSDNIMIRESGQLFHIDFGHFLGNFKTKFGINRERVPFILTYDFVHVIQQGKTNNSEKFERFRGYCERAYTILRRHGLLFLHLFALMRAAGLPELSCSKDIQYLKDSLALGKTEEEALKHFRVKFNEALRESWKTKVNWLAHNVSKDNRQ

PIK3CG (human) [8] = target: PIK3CG (human) (UniProt P48736); test: Enzyme Assay
PIK3CG (human), sequence (P48736 whole entry, looked up): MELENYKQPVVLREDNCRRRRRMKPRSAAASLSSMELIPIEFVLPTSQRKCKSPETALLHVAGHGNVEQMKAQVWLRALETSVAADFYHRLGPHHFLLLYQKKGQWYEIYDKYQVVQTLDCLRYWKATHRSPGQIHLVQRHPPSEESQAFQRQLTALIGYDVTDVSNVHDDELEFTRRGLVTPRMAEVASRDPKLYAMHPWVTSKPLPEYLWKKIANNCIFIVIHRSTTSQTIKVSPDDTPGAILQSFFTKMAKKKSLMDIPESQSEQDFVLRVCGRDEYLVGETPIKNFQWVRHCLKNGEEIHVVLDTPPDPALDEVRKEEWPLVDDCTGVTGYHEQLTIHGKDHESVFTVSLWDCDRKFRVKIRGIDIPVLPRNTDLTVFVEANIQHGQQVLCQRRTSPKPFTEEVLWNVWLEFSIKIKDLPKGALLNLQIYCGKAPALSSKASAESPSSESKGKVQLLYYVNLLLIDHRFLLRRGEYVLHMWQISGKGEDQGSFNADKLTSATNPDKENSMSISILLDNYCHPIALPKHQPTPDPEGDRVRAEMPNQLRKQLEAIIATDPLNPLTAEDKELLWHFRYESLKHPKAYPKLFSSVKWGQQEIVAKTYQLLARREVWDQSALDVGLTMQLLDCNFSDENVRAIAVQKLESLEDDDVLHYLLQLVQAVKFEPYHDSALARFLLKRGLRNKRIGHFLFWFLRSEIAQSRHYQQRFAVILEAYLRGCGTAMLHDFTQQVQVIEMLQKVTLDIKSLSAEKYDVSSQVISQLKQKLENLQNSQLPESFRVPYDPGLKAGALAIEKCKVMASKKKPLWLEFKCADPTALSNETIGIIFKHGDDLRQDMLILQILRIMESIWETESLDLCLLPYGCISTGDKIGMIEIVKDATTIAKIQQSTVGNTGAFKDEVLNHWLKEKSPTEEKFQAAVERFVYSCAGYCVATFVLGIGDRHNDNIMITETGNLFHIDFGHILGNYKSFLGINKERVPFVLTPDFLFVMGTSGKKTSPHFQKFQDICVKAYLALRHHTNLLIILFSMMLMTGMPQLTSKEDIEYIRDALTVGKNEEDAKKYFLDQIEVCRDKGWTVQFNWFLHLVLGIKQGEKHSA

EGFR = EGFR (UniProt P00533)
EGFR (human) [9] = target: EGFR (human) (UniProt P00533); remark: listed apart in the source
MAPK14 = MAPK14 (UniProt Q16539); test: Enzyme Assay
MAPK14, sequence (Q16539 whole entry, looked up): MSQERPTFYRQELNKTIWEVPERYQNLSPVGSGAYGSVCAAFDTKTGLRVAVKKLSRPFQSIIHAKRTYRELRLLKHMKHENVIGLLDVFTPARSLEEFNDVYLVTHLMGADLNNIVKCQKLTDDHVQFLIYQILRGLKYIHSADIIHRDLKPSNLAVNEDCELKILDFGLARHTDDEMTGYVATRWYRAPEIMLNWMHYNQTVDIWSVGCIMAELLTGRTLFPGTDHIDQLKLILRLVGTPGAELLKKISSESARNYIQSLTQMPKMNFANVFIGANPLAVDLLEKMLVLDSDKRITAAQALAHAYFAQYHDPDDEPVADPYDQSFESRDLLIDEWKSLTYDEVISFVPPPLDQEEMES

PIK3CA (human) [10] = target: PIK3CA (human) (UniProt P42336); test: Inhibition of PIK3CA Kinase Activity
PIK3CG (human) [11] = target: PIK3CG (human) (UniProt P48736); test: Inhibition of PIK3CG Kinase Activity
PIK3CD (Human) [12] = target: PIK3CD (Human) (UniProt O00329); test: Inhibition of PIK3CD Kinase Activity
PIK3CB (Human) [13] = target: PIK3CB (Human) (UniProt P42338); test: Inhibition of PIK3CB Kinase Activity

PIK3CB (Human), sequence (P42338 whole entry, looked up): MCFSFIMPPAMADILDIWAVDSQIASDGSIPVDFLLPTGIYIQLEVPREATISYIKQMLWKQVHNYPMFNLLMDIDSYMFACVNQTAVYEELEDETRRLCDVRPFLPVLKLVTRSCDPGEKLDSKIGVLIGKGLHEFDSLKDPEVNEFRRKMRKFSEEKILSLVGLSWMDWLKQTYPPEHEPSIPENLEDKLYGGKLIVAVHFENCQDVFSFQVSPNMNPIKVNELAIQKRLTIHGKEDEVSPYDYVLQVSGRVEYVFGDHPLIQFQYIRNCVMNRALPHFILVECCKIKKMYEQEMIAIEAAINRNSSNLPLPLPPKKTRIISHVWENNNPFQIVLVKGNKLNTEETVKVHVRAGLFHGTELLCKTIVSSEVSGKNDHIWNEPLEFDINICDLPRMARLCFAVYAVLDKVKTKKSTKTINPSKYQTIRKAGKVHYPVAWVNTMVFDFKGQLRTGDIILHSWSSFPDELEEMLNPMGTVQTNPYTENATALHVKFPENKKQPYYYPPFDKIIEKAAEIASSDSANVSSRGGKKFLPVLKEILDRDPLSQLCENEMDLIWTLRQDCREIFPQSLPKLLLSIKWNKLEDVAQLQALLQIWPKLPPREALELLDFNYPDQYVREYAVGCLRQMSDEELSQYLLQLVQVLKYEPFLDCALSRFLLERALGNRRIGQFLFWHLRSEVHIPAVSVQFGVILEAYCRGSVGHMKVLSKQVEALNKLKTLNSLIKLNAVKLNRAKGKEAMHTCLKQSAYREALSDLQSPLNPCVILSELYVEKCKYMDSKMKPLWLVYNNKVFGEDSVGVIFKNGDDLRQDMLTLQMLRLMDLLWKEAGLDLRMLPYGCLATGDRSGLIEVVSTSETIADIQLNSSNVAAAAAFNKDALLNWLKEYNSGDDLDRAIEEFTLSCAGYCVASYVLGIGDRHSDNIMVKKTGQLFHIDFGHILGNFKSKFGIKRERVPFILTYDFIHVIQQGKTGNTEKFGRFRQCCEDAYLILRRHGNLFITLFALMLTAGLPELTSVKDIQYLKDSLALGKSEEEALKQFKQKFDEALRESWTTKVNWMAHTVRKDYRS
PIK3CA (human), sequence (P42336 whole entry, looked up): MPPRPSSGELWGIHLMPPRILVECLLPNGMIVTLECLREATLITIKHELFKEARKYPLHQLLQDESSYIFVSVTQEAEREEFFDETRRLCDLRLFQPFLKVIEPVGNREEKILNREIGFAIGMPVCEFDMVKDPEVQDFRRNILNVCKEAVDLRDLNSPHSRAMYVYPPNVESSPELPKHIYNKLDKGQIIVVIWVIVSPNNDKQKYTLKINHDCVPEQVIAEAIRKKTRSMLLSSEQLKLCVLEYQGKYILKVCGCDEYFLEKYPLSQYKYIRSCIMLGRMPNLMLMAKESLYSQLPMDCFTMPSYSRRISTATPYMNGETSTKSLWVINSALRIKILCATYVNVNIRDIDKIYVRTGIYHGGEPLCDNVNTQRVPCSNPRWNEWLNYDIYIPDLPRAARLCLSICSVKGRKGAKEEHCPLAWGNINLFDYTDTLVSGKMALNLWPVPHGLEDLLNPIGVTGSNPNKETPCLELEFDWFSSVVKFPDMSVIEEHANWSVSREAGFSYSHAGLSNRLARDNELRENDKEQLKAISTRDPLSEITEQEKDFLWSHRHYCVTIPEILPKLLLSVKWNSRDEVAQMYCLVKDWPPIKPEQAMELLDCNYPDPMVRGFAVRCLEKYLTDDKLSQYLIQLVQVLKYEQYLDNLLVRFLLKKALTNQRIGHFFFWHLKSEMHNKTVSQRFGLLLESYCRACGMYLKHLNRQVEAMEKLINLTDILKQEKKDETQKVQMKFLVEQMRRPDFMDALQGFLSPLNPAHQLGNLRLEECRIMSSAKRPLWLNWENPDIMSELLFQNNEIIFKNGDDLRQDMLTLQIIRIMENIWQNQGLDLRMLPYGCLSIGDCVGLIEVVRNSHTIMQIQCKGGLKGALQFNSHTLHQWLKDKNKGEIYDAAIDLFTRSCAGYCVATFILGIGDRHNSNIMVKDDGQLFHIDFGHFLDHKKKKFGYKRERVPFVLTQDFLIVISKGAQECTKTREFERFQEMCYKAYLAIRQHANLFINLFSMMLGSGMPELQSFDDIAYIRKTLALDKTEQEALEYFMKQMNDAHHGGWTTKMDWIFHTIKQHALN

SMILES: C[C@H](Nc1ncnc(N)c1C#N)c1cc2ccc(F)cc2nc1-c1ccccn1
IC50 (PIK3CB (Human) [1]): 1950 nM

SMILES: C=CC(=O)N1CC(C(=O)Nc2ccc3ncnc(Nc4ccc(OCc5ccccn5)c(Cl)c4)c3c2)C1
IC50 (EGFR (human) [3]): 1400 nM

SMILES: C[C@H](Nc1ncnc(N)c1C#N)c1nc2ccc(F)cc2nc1-c1ccccn1
IC50 (PIK3CB (Human) [1]): > 10000 nM

SMILES: CCNc1nc(-c2cccc(OC)c2)c(-c2ccnc(Nc3ccc(OCCN(C)C)c(C)c3)n2)s1
IC50 (EGFR (human) [4]): < 100 nM

SMILES: O=c1cc(NCc2ccccc2)nc(N2CCOCC2)[nH]1
IC50 (PIK3CA (human) [5]): 142000 nM
IC50 (PIK3CB (Human) [6]): 34000 nM

SMILES: O=C(c1nn([C@@H]2CCCN(CCN3CCOCC3)C2)c2c1CS(=O)(=O)c1c(F)cccc1-2)N1CCOCC1
IC50 (PIK3CA (human) [5]): 7650 nM
IC50 (PIK3CB (Human) [6]): 2450 nM
IC50 (PIK3CD (Human) [7]): 15 nM

SMILES: CC[C@H](Nc1ncnc(N)c1-c1nnc(C)o1)c1cc2cccc(Cl)c2c(=O)n1-c1ccccc1
IC50 (PIK3CB (Human) [6]): 359 nM

SMILES: C=CC(=O)N1CC[C@H]1C(=O)Nc1ccc2ncnc(Nc3ccc(OCc4ccccn4)c(Cl)c3)c2c1
IC50 (EGFR (human) [3]): 218 nM

SMILES: C[C@H](Nc1ncnc(N)c1C#N)c1nc2cccc(C#N)c2nc1-c1ccccc1S(C)(=O)=O
IC50 (PIK3CB (Human) [1]): > 10000 nM

SMILES: COCCNc1nc(-c2cccc(OC)c2)c(-c2ccnc(Nc3ccc(N4CCOCC4)c(Cl)c3)n2)s1
IC50 (EGFR (human) [4]): < 100 nM

SMILES: CC(C)S(=O)(=O)n1c(N)nc2ccc(-c3[nH]c(-c4c(F)cccc4F)nc3-c3ccccc3)cc21
Ki (MAPK14): 5 nM

SMILES: Nc1ccccc1Nc1ccc2c(c1)OCc1ccccc1C2=O
IC50 (MAPK14): 303 nM

SMILES: C=CC(=O)N1CC[C@H](C(=O)Nc2ccc3ncnc(Nc4ccc(OCc5ccccn5)c(Cl)c4)c3c2)C1
IC50 (EGFR (human) [3]): 350 nM

SMILES: CCNc1nc(-c2cccc(OC)c2)c(-c2ccnc(Nc3ccc(OC4CCN(CCS(C)(=O)=O)CC4)c(F)c3)n2)s1
IC50 (EGFR (human) [4]): 100 to 1000 nM

SMILES: CCNc1nc(-c2cccc(Cl)c2)c(-c2ccnc(Nc3ccc(OCCN(C)C)c(Cl)c3)n2)s1
IC50 (EGFR (human) [4]): < 100 nM

SMILES: CCN(CC)c1ncc2c(n1)-c1sc(NC(=O)N3CCC[C@@]3(Cc3ccccc3)C(N)=O)nc1CC2
IC50 (PIK3CA (human) [10]): 45 nM
IC50 (PIK3CG (human) [11]): 1590 nM
IC50 (PIK3CD (Human) [12]): 740 nM
IC50 (PIK3CB (Human) [13]): 127 nM

SMILES: Cc1ccc(-n2nc(C(C)(C)C)cc2NC(=O)Nc2cc(C)c(OCCN3CCOCC3)c3ccccc23)cc1
Kd (MAPK14): 14 nM

SMILES: CCN1CCN(c2cccc3c2CCN3C(=O)Cc2nc(N3CCOCC3)cc(=O)[nH]2)CC1
IC50 (PIK3CA (human) [5]): 660 nM
IC50 (PIK3CB (Human) [6]): 332 nM
IC50 (PIK3CD (Human) [7]): 2 nM
IC50 (PIK3CG (human) [8]): 10000 nM

SMILES: C[C@@H]1CN(Cc2ccc(NC(=O)c3sc4ncnc5c4c3NC(=O)N5c3ccc(Oc4ccccc4)cc3)cc2)C[C@H](C)O1
IC50 (EGFR (human) [9]): 31 nM

The next lines start with the values.

IC50 (EGFR (human) [2]): 35.5 nM
SMILES: FC(F)(F)c1cccc(Nc2ncnc3sc4c(c23)CCCC4)c1

IC50 (EGFR (human) [3]): 105 nM
SMILES: C=CC(=O)N1CCCC[C@H]1C(=O)Nc1ccc2ncnc(Nc3ccc(OCc4ccccn4)c(Cl)c3)c2c1

IC50 (PIK3CB (Human) [6]): 8 nM
IC50 (PIK3CD (Human) [7]): 3 nM
IC50 (PIK3CG (human) [8]): 3100 nM
SMILES: C[C@H](Nc1ncnc2ccc(Cl)nc12)c1nc2c(F)ccc(Cl)c2c(=O)n1N1CCNCC1

IC50 (EGFR): 1 to 5000 nM
SMILES: NC1CCN(Cc2cccc3ncnc(Nc4ccc(OCc5cccc(F)c5)c(Cl)c4)c23)CC1

IC50 (EGFR (human) [3]): 567 nM
SMILES: C=CC(=O)N1CCC[C@@H]1C(=O)Nc1ccc2ncnc(Nc3ccc(OCc4ccccn4)c(Cl)c3)c2c1

IC50 (EGFR (human) [2]): 34 nM
SMILES: COc1cccc(Nc2ncnc3sc4c(c23)CCCC4)c1

IC50 (EGFR (human) [3]): 513 nM
SMILES: C=CC(=O)N1CCC(C(=O)Nc2ccc3ncnc(Nc4ccc(OCc5ccccn5)c(Cl)c4)c3c2)CC1

IC50 (EGFR): 1 to 5000 nM
SMILES: N[C@@H]1CCN(Cc2cccc3ncnc(Nc4ccc5c(cnn5Cc5cccc(F)c5)c4)c23)C[C@H]1O

IC50 (EGFR (human) [2]): 1.97 nM
SMILES: Clc1cccc(Nc2ncnc3sc4c(c23)CCCC4)c1

IC50 (EGFR (human) [9]): 23 nM
SMILES: O=C(Nc1ccc(CN2CCOCC2)cc1)c1sc2ncnc3c2c1NC(=O)N3c1ccc(F)cc1Cl

IC50 (EGFR (human) [9]): 116 nM
SMILES: N#Cc1ccc(NC(=O)c2sc3ncnc4c3c2NC(=O)N4c2ccc(F)c(Cl)c2)cn1

IC50 (EGFR (human) [3]): 286 nM
SMILES: C=CC(=O)N1CCC[C@H](C(=O)Nc2ccc3ncnc(Nc4ccc(OCc5ccccn5)c(Cl)c4)c3c2)C1

IC50 (EGFR): 1 to 5000 nM
SMILES: COc1cccc(Nc2ncnc3cccc(CN4CC[C@@H](N)[C@H](O)C4)c23)c1

IC50 (EGFR): 1 to 5000 nM
SMILES: N[C@@H]1CCN(Cc2cccc3ncnc(Nc4cccc(Cl)c4)c23)C[C@H]1O

IC50 (EGFR (human) [2]): 50.3 nM
SMILES: Brc1ccc(Nc2ncnc3sc4c(c23)CCCC4)cc1

Source: the Kinase Knowledgebase extract (Sharma et al. 2016)
